From patent US20240270736A1, “MACROCYCLIC HETEROCYCLES AND USES THEREOF” (Kumquat Biosciences Inc., priority 2022, published 2024)
pIC50: −log10 of the molar value.

Legend:
Format in all cases: binding
KRAS G12D = target: T1, KRAS G12D (Homo sapiens, UniProt P01116, G12D); assay: HTRF assay, interaction of KRAS G12D with SOS1; settings: Ras::SOS1 interaction, read-out: Inhibition of KRAS G12D (IC50)
T1 construct: made in house; host or cells: E. coli, e.g. BL21 (DE3)
Text: (§1) This assay can be also used to assess a selective inhibition or reduction of signaling output of a mutant Ras protein relative to a wildtype, or relative to a different mutant Ras protein. For example, the equilibrium interaction of wildtype Kras or K-Ras mutant (e.g., wildtype or a mutant thereof) with SOS1 (e.g., hSOS1) can be assessed as a proxy or an indication for a subject compound's ability to bind and inhibit Ras protein. The HTRF assay detects from (i) a fluorescence resonance energy transfer (FRET) donor (e.g., antiGST-Europium) that is bound to GST-tagged K-Ras mutant to (ii) a FRET acceptor (e.g., anti-6His-XL665) bound to a His-tagged hSOS1.
(§2) The assay buffer can contain ˜5 mM HEPES pH 7.4, ˜150 mM NaCl, ˜ 1 mM DTT, 0.05% BSA and 0.0025% (v/v) Igepal. A Ras working solution is prepared in an assay buffer containing typically a suitable amount of the protein construct (e.g., GST-tagged K-Ras mutant) and the FRET donor (e.g., antiGST-Eu(K) from Cisbio, France). A SOS1 working solution is prepared in an assay buffer containing suitable amount of the protein construct (e.g., His-hSOS1) and the FRET acceptor (e.g., anti-6His-XL665 from Cisbio, France). A suitable amount of the protein construct will depend on the range of activity or range of IC50 values being detected or under investigation. For detecting an IC50 within a range of 500 nM, the protein constructs of the same range of molarity can be utilized.
(§3) A fixed volume of DMSO with or without test compound is transferred into a 384-well plate. Ras working solution is added to all wells of the test plate. SOS1 working solution is added to all wells except for those that are subsequently filled with inhibitor control solution. Upon incubation for about 10 minutes or longer, the fluorescence is measured with a M1000Pro plate reader (Tecan) using HTRF detection (excitation 337 nm, emission 1: 620 nm, emission 2: 665 nm). Compounds are tested in duplicate at different concentrations (for example, 10 μM, 2.5 μM, 0.63 μM, 0.16 μM, 0.04 μM, 0.01 μM test compound). The ratiometric data (i.e., emission 2 divided by emission 1) is used to calculate IC50 values against Ras using GraphPad Prism (GraphPad software). Signaling output measured in terms of IC50 values can be obtained and a ratio of IC50 against one mutant relative to another mutant can be calculated. For instance, a selective reduction of K-Ras G12D signaling output can be evidenced by a ratio greater than one. In particular, a selective reduction of K-Ras G12D signaling relative to K-Ras WT signaling is evidenced if the ratio of IC50 (against K-Ras WT) to IC50 (against K-Ras G12D) is greater than 1.

wildtype KRAS = target: T2, wildtype KRAS (Homo sapiens, UniProt P01116); assay: HTRF assay, interaction of wildtype KRAS with SOS1; settings: Ras::SOS1 interaction, read-out: Inhibition of KRAS WT (IC50)
T2 construct: made in house; host or cells: E. coli, e.g. BL21 (DE3)
T2 sequence (P01116 1-188 isoform P01116-2): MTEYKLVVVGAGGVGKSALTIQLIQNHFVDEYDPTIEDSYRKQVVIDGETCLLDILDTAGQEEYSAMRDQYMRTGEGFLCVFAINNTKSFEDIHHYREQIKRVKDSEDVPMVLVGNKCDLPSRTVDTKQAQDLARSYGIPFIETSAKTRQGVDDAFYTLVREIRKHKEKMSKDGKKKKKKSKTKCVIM
Text: as §1, §2, §3

KRAS G12V = target: T3, KRAS G12V (Homo sapiens, UniProt P01116, G12V); assay: HTRF assay, interaction of KRAS G12V with SOS1; settings: Ras::SOS1 interaction, read-out: Inhibition of KRAS G12V (IC50)
T3 construct: made in house; host or cells: E. coli, e.g. BL21 (DE3)
T3 sequence (P01116 1-188 isoform P01116-2 G12V): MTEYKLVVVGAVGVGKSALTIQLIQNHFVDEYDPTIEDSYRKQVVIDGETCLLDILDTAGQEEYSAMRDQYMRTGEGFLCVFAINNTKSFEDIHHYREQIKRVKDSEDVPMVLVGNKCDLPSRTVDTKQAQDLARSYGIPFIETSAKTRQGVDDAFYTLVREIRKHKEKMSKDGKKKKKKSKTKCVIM
Text: as §1, §2, §3

Measured: pIC50

T1 sequence (P01116 1-188 isoform P01116-2 G12D): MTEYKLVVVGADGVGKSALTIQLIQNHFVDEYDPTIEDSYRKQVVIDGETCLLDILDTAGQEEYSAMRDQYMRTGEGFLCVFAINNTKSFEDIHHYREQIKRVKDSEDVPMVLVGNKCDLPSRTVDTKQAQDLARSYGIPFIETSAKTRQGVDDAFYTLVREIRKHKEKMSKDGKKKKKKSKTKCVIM

CN(C)CC1/C=C/CCN2CCOc3c(Cl)c(-c4ccc(F)c5sc(N)c(C#N)c45)c(F)c4nc(nc2c34)OC1 (stereo not drawn) [Compound 110, (E)-2-amino-4-(14-chloro-5-((dimethylamino)methyl)-16-fluoro-4,5,8,9,11,12-hexahydro-2,17-(azeno)benzo[6,7][1,4]oxazepino[5,4-d][1]oxa[3,5]diazacycloundecin-15-yl)-7-fluorobenzo[b]thiophene-3-carbonitrile]
≥ 5.30: all assays above

N#Cc1c(N)sc2c(F)ccc(-c3c(Cl)c4c5c6nc(nc5c3F)OCCNC(=O)CCN6CCO4)c12 [Compound 112, 2-amino-4-(14-chloro-16-fluoro-7-oxo-4,5,6,7,8,9,11,12-octahydro-2,17-(azeno)benzo[6,7][1,4]oxazepino[5,4-d][1]oxa[3,5,9]triazacycloundecin-15-yl)-7-fluorobenzo[b]thiophene-3-carbonitrile]
≥ 5.30: all assays above

CN1C[C@@H]2C[C@H]1COc1nc3c4c(c(Cl)c(-c5ccc(F)c6sc(N)c(C#N)c56)c(F)c4n1)OCCN3CCCO2 (single isomer, unassigned) [Compound 135]
≥ 5.30: all assays above

CNCC1CCCCCCN2CCOc3c(Cl)c(-c4ccc(F)c5sc(N)c(C#N)c45)c(F)c4nc(nc2c34)O1 (stereo not drawn) [Compound 157, 2-amino-4-(15-chloro-17-fluoro-4-((methylamino)methyl)-5,6,7,8,9,10,12,13-octahydro-4H-2,18-(azeno)benzo[6,7][1,4]oxazepino[5,4-d][1]oxa[3,5]diazacyclododecin-16-yl)-7-fluorobenzo[b]thiophene-3-carbonitrile]
≥ 5.30: all assays above

C[C@H]1COc2c(Cl)c(-c3ccc(F)c4sc(N)c(C#N)c34)c(F)c3nc4nc(c23)N1CCC=CCC(CN(C)C)O4 (single isomer, unassigned) [Compound 103]
≥ 5.30: all assays above

CN(C)CC1CCCCCN2c3nc(nc4c(F)c(-c5ccc(F)c6sc(N)c(C#N)c56)c(Cl)c(c34)OC[C@@H]2C(F)F)O1 (stereo partly drawn) [Compound 156, 2-amino-4-((11R)-14-chloro-11-(difluoromethyl)-4-((dimethylamino)methyl)-16-fluoro-4,5,6,7,8,9,11,12-octahydro-2,17-(azeno)benzo[6,7][1,4]oxazepino[5,4-d][1]oxa[3,5]diazacycloundecin-15-yl)-7-fluorobenzo[b]thiophene-3-carbonitrile]
≥ 5.30: all assays above

CNCC1CCCCCN2CCOc3c(Cl)c(-c4ccc(F)c5sc(N)c(C#N)c45)c(F)c4nc(nc2c34)O1 (stereo not drawn) [Compound 133, 2-amino-4-(14-chloro-16-fluoro-4-((methylamino)methyl)-4,5,6,7,8,9,11,12-octahydro-2,17-(azeno)benzo[6,7][1,4]oxazepino[5,4-d][1]oxa[3,5]diazacycloundecin-15-yl)-7-fluorobenzo[b]thiophene-3-carbonitrile]
≥ 5.30: all assays above

CN1CCCCCCN2CCOc3c(Cl)c(-c4ccc(F)c5sc(N)c(C#N)c45)c(F)c4nc(nc2c34)OCCC1 [Compound 153, 2-amino-4-(18-chloro-20-fluoro-7-methyl-4,5,6,7,8,9,10,11,12,13,15,16-dodecahydro-2,21-(azeno)benzo[6,7][1,4]oxazepino[5,4-d][1]oxa[3,5,12]triazacyclopentadecin-19-yl)-7-fluorobenzo[b]thiophene-3-carbonitrile]
≥ 5.30: all assays above

CN(C)CC1CC=CCCN2CCOc3c(Cl)c(-c4ccc(F)c5sc(N)c(C#N)c45)c(F)c4nc(nc2c34)O1 (stereo not drawn) [Compound 116, 2-amino-4-(14-chloro-4-((dimethylamino)methyl)-16-fluoro-4,5,8,9,11,12-hexahydro-2,17-(azeno)benzo[6,7][1,4]oxazepino[5,4-d][1]oxa[3,5]diazacycloundecin-15-yl)-7-fluorobenzo[b]thiophene-3-carbonitrile]
≥ 5.30: all assays above

CNCC1C/C=C\CCN2CCOc3c(Cl)c(-c4ccc(F)c5sc(N)c(C#N)c45)c(F)c4nc(nc2c34)O1 (stereo not drawn) [Compound 141, (Z)-2-amino-4-(14-chloro-16-fluoro-4-((methylamino)methyl)-4,5,8,9,11,12-hexahydro-2,17-(azeno)benzo[6,7][1,4]oxazepino[5,4-d][1]oxa[3,5]diazacycloundecin-15-yl)-7-fluorobenzo[b]thiophene-3-carbonitrile]
≥ 5.30: all assays above

CN(C)CC1CNC(=O)CN2CCOc3c(Cl)c(-c4ccc(F)c5sc(N)c(C#N)c45)c(F)c4nc(nc2c34)OC1 (stereo not drawn) [Compound 145, 2-amino-4-(14-chloro-5-((dimethylamino)methyl)-16-fluoro-8-oxo-4,5,6,7,8,9,11,12-octahydro-2,17-(azeno)benzo[6,7][1,4]oxazepino[5,4-d][1]oxa[3,5,8]triazacycloundecin-15-yl)-7-fluorobenzo[b]thiophene-3-carbonitrile]
≥ 5.30: all assays above

CN1CCC[C@H]1[C@@H]1CC/C=C\CCN2CCOc3c(Cl)c(-c4ccc(F)c5sc(N)c(C#N)c45)c(F)c4nc(nc2c34)O1 [Compound 159, 2-amino-4-((4S,Z)-15-chloro-17-fluoro-4-((S)-1-methylpyrrolidin-2-yl)-5,6,9,10,12,13-hexahydro-4H-2,18-(azeno)benzo[6,7][1,4]oxazepino[5,4-d][1]oxa[3,5]diazacyclododecin-16-yl)-7-fluorobenzo[b]thiophene-3-carbonitrile]
≥ 5.30: all assays above

CN1CCC[C@H]1C1CCCCCCN2CCOc3c(Cl)c(-c4ccc(F)c5sc(N)c(C#N)c45)c(F)c4nc(nc2c34)O1 (stereo partly drawn) [Compound 138, 2-amino-4-(15-chloro-17-fluoro-4-((S)-1-methylpyrrolidin-2-yl)-5,6,7,8,9,10,12,13-octahydro-4H-2,18-(azeno)benzo[6,7][1,4]oxazepino[5,4-d][1]oxa[3,5]diazacyclododecin-16-yl)-7-fluorobenzo[b]thiophene-3-carbonitrile]
≥ 5.30: all assays above
